Laboratory results from ChEMBL document CHEMBL6109037, “Understanding the mechanisms of antimicrobial resistance and potential therapeutic approaches against the Gram-negative pathogen Acinetobacter baumannii” (RSC Med Chem, 2024).
pIC50: −log10 of the molar value. ≈ marks a conversion by molar mass, not a printed value.

Key:
[1] = tested on: Acinetobacter baumannii; test: Antibacterial activity against Acinetobacter baumannii; assay type: functional
[2] = tested on: Acinetobacter baumannii; test: Antibacterial activity against multidrug-resistant Acinetobacter baumannii ATCC 17978 assessed as reduction in bacterial growth incubated for 24 hrs by micro-broth dilution method; assay type: functional
[3] = tested on: Acinetobacter baumannii; test: Antibacterial activity against Acinetobacter baumannii ATCC 17978 assessed as reduction in bacterial growth incubated for 24 hrs by micro-broth dilution method; assay type: functional
[4] = tested on: Acinetobacter baumannii; test: Antibacterial activity against Acinetobacter baumannii ATCC 17978 assessed as bacterial eradication; assay type: functional
[5] = tested on: Acinetobacter baumannii; test: Bactericidal activity against Acinetobacter baumannii; assay type: functional
[6] = tested on: Acinetobacter baumannii; test: Antibacterial activity against Acinetobacter baumannii BAA-1605 assessed as reduction in microbial growth incubated for 24 hrs by broth micro-dilution method; assay type: functional
[7] = tested on: Acinetobacter baumannii; test: Antibacterial activity against Acinetobacter baumannii AB-5075 assessed as reduction in bacterial growth incubated for 18 to 24 hrs by broth micro-dilution assay; assay type: functional, organism-based
[8] = tested on: Staphylococcus aureus; test: Antibacterial activity against Staphylococcus aureus assessed as reduction in microbial growth; assay type: functional
[9] = tested on: Staphylococcus aureus; test: Antibacterial activity against Staphylococcus aureus; assay type: functional
[10] = tested on: Escherichia coli; test: Antibacterial activity against Escherichia coli; assay type: functional
[11] = tested on: Acinetobacter baumannii; test: Antibacterial activity against multidrug-resistant Acinetobacter baumannii assessed as inhibition of bacterial growth incubated for 24 hrs by broth dilution assay; assay type: functional
[12] = tested on: Acinetobacter baumannii; test: Antibacterial activity against Acinetobacter baumannii ATCC 17978 assessed as reduction in microbial growth incubated for 24 hrs Mueller-Hintorn broth dilution method; assay type: functional, organism-based; settings: ATCC 17978, 24 h
[13] = tested on: Acinetobacter baumannii; test: Antibacterial activity against Acinetobacter baumannii ATCC 17978 assessed as inhibition of bacterial growth incubated for 18 to 20 hrs by two fold serial dilution assay; assay type: functional; settings: time 18-20 hrs
[14] = target: DNA gyrase (Escherichia coli, UniProt P0AES4+P0AES6); test: Inhibition of Escherichia coli DNA gyrase; assay type: protein-complex assay
[15] = tested on: Acinetobacter baumannii; test: Synergistic antibacterial activity against Acinetobacter baumannii assessed as inhibition of bacterial growth incubated for 18 to 24 hrs by Checkerboard assay relative to control; assay type: functional; parameters: scale not given: the % may be the effect or the level left; settings: time 18-24 hrs
[16] = tested on: Acinetobacter baumannii; test: Antibacterial activity against Acinetobacter baumannii assessed as zone of inhibition; assay type: functional
[17] = tested on: Acinetobacter baumannii; test: Antibacterial activity against Acinetobacter baumannii ATCC 17978 assessed as reduction in microbial growth; assay type: functional
[18] = tested on: Acinetobacter baumannii; test: Antibacterial activity against Acinetobacter baumannii ATCC 17978 assessed as reduction in bacterial growth incubated for 24 hrs by broth dilution assay; assay type: functional
[19] = tested on: Acinetobacter baumannii; test: Synergistic antibacterial activity against Acinetobacter baumannii clinical isolates assessed as inhibition of bacterial growth incubated for 18 to 24 hrs by Checkerboard assay relative to control; assay type: functional; parameters: scale not given: the % may be the effect or the level left; settings: time 18-24 hrs
[20] = tested on: Klebsiella pneumoniae; test: Antibacterial activity against Klebsiella pneumoniae; assay type: functional

COCCCNc1cc2nc(NC(=O)c3[nH]c(C)c(Cl)c3Cl)sc2cc1C(=O)O
MIC [1]: 4 µg/mL (≈ 8.75 µM)

O=[N+]([O-])c1ccc(O)c(/C=N/Nc2ccccn2)c1
MIC [1]: 25 µg/mL (≈ 96.8 µM)

CN(C)CCCN1c2ccccc2Sc2ccc(Cl)cc21 [CHLORPROMAZINE]
MIC [2]: 100 µg/mL (≈ 314 µM)
MIC [3]: 100 µg/mL (≈ 314 µM)
MBEC [4]: 0.3 g/L

H-RWKIFKKIPKFLHSAKKW-NH2
MIC [5]: 4 µg/mL

O=C(O)c1ccc(-c2nn(-c3ccc(C(=O)O)cc3)cc2/C=N/Nc2cccc(F)c2)cc1
MIC [1]: 1.56 µg/mL (≈ 3.51 µM)

C[C@@H](O)[C@H]1C(=O)N2C(C(=O)O)=C(SCCNC=N)C[C@H]12 [IMIPENEM ANHYDROUS]
MIC [1]: > 8 µg/mL

CO[C@@]12[C@H](COC(N)=O)C3=C(C(=O)C(C)=C(N)C3=O)N1C[C@@H]1N[C@@H]12 [MITOMYCIN]
MIC [6]: ≤ 8 µg/mL

CN(C)[C@@H]1C(O)=C(C(N)=O)C(=O)[C@@]2(O)C(O)=C3C(=O)c4c(O)cccc4[C@@](C)(O)[C@H]3C[C@@H]12 [TETRACYCLINE]
pIC50 [7]: 7.40

Cn1cnc2c3c(Cl)c4ccccc4nc3ccc21
MBC [8]: 2 µg/mL

Cc1cc(=O)n(C)c2c3c4c(cc12)c(C)cc(=O)n4CCO3
MIC [1]: > 32 µg/mL
MIC [9]: 0.06 µg/mL (≈ 0.202 µM)
MIC [10]: > 32 µg/mL

C[C@@H](O)[C@H]1C(=O)N2C(C(=O)O)=C(S[C@@H]3CN[C@H](C(=O)N(C)C)C3)[C@H](C)[C@H]12 [MEROPENEM]
MIC [1]: > 8 µg/mL

CSc1ccc2c(c1)N(CCC1CCCCN1C)c1ccccc1S2 (configuration not stated) [THIORIDAZINE]
MIC [2]: 100 µg/mL (≈ 270 µM)
MIC [3]: 100 µg/mL (≈ 270 µM)
MBEC [4]: 0.3 g/L

THIMEROSAL
MIC [11]: 1 µg/mL

O=C1NC2(CCC3(CC2)OCCO3)NN1c1ccc(Cl)cc1
pIC50 [12]: 4.97

CN(C)c1cc(NC(=O)CNC(C)(C)C)c(O)c2c1C[C@H]1C[C@H]3[C@H](N(C)C)C(O)=C(C(N)=O)C(=O)[C@@]3(O)C(O)=C1C2=O [TIGECYCLINE]
MIC [1]: 0.5 µg/mL (≈ 0.854 µM)
pIC50 [7]: 6.82

Cc1cc(-n2sc(Cl)c(C)c2=O)ccc1Cl
MIC [11]: 2 µg/mL (≈ 7.29 µM)

O=c1[nH]cc(F)c(=O)[nH]1 [FLUOROURACIL]
pIC50 [7]: 5.74

Cc1c(CN(C)C(=O)/C=C/c2cnc3c(c2)CCC(=O)N3)oc2ccccc12 [AFN-1252]
MIC [10]: > 32 µg/mL

Oc1cccc(/C=N/Nc2ccccn2)c1O
MIC [1]: 25 µg/mL (≈ 109 µM)

CC(CN1c2ccccc2Sc2ccccc21)N(C)C (configuration not stated) [PROMETHAZINE]
MIC [2]: 100 µg/mL (≈ 352 µM)
MIC [3]: 100 µg/mL (≈ 352 µM)
MBEC [4]: 0.3 g/L

Cc1cc(=O)n(C)c2c3c4c(cc12)c(C)cc(=O)n4C(CN)CO3 (configuration not stated)
MIC [1]: 2 µg/mL (≈ 6.15 µM)
MIC [9]: 0.03 µg/mL (≈ 0.0922 µM)
MIC [10]: 0.5 µg/mL (≈ 1.54 µM)

Brc1ccc2[nH]c(-c3ccncc3)cc2c1
MIC [13]: < 2 µg/mL

CC(C)(C)n1cc(C(=O)O)c(=O)c2cc(F)c(Cl)nc21
pIC50 [12]: > 5.70

Cc1[nH]c(C(=O)Nc2nc3cc(NCc4ccccc4)c(C(=O)O)cc3s2)c(Cl)c1Cl
MIC [1]: 8 µg/mL (≈ 16.8 µM)
pIC50 [14]: > 7.15

Cc1c(N2C[C@H](N)C3(CC3)C2)c(F)cn2c(=O)c(C(=O)O)cc(C3CC3)c12
MIC [13]: 0.19 µg/mL (≈ 0.512 µM)

CC1(C)[C@H](C(=O)O)N2C(=O)C[C@H]2S1(=O)=O [SULBACTAM]
Activity [15]: ~70%

CC[C@H]1OC(=O)[C@H](C)[C@@H](O[C@H]2C[C@@](C)(OC)[C@@H](O)[C@H](C)O2)[C@H](C)[C@@H](O[C@@H]2O[C@H](C)C[C@H](N(C)C)[C@H]2O)[C@](C)(O)C[C@@H](C)CN(C)[C@H](C)[C@@H](O)[C@]1(C)O [AZITHROMYCIN]
pIC50 [7]: 5.96

O=C(O)c1ccc(-n2cc(/C=N/Nc3ccccc3)c(-c3ccccc3)n2)cc1
inhibition zone (IZ) [16]: 28 mm

O=C(O)c1ccc(-c2nn(-c3ccc(C(=O)O)cc3)cc2/C=N/Nc2ccc(Cl)cc2)cc1
MIC [1]: 0.79 µg/mL (≈ 1.71 µM)

Cc1c(Cl)sn(-c2ccc(Cl)cc2)c1=O
MIC [11]: 0.25 µg/mL (≈ 0.961 µM)

CNc1nc(NCc2ccccc2)nc2ccc(C)cc12
MIC [17]: 1 µM

CN1CCN(CCCN2c3ccccc3Sc3ccc(C(F)(F)F)cc32)CC1 [TRIFLUOPERAZINE]
MIC [2]: 100 µg/mL (≈ 245 µM)
MIC [3]: 100 µg/mL (≈ 245 µM)
MBEC [4]: 0.3 g/L

O=C(O)c1ccc(-n2cc(/C=N/Nc3ccc(Cl)cc3)c(-c3ccccc3)n2)cc1
MIC [1]: 4 µg/mL (≈ 9.6 µM)

Cc1c(N2C[C@@H](N)[C@@H](C)C2)c(F)cn2c(=O)c(C(=O)O)cc(C3CC3)c12
MIC [13]: 0.09 µg/mL (≈ 0.25 µM)

CNCC1=CCCN(c2c(F)cn3c(=O)c(C(=O)O)cc(C4CC4)c3c2C)C1
MIC [18]: 0.16 µM (≈ 0.0617 µg/mL)

NCC[C@H](O)C(=O)N[C@@H]1C[C@H](N)[C@@H](O[C@H]2O[C@H](CN)[C@@H](O)[C@H](O)[C@H]2O)[C@H](O)[C@H]1O[C@H]1O[C@H](CO)[C@@H](O)[C@H](N)[C@H]1O [AMIKACIN]
Activity [19]: 46.2%

Cc1c(N2C[C@H](C)N[C@@H](C)C2)c(F)cn2c(=O)c(C(=O)O)cc(C3CC3)c12
MIC [18]: 0.31 µM (≈ 0.116 µg/mL)

Cc1c(CN(C)C(=O)/C=C/c2cnc3c(c2)CC(N)C(=O)N3)oc2ccccc12 (configuration not stated)
MIC [1]: 4 µg/mL (≈ 10.2 µM)
MIC [10]: 4 µg/mL (≈ 10.2 µM)
MIC [20]: 4 µg/mL (≈ 10.2 µM)

NNC(=O)CSc1ccc([N+](=O)[O-])cc1Cl
pIC50 [12]: 4.93

O=C(O)c1ccc(-n2cc(/C=N/Nc3ccc(F)cc3)c(-c3ccccc3)n2)cc1
MIC [1]: 8 µg/mL (≈ 20 µM)

O=c1[nH]c(=O)n(C2OC(CO)c3ccccc32)cc1F (configuration not stated)
pIC50 [12]: > 5.70
